The values that follow are results of earlier work, collected in patent publication US7767208B2, “Noninvasive vascular therapy” (Light Sciences Oncology, Inc., priority 1999, dated 2010).

The conditions of this data set: systemically administered sensitizer in clinical use; for sensitize the skin for: duration of skin sensitization.

Regarding `CCOC(=O)C1=Cc2c3nc(cc4nc(cc5[n-]c(cc6[n-]c2c(C)c6CC)c(C)c5CC)C(C)=C4CC)[C@@H](C)[C@]13CC.[Cl-].[Cl-].[Sn]` (racemic) [Purlytin], the “sensitize the skin for” value was “several weeks”.

In the case of `Oc1cccc(-c2c3nc(c(-c4cccc(O)c4)c4ccc([nH]4)c(-c4cccc(O)c4)c4nc(c(-c5cccc(O)c5)c5ccc2[nH]5)CC4)C=C3)c1` [Foscan], the “sensitize the skin for” value is recorded as “several weeks”.

For sodium porfimer [Photophrin], where the note is “skin photosensitivity”, the photosensitivity lasting entry is on record as “up to 6 weeks”.
